Data reported in PubChem BioAssay AID1919009 (Molecular Pharmacology Branch, DTP, NCI, 2023).

System: K24384-001-R-PDC complex spheroid growth
Test: Anticancer human tumor K24384-001-R-PDC patient-derived pancreatic adenocarcinoma cell line growth inhibition [AhR]
Details: for IC50: curve of first compound; for viability, T/C: stronger effect = lower value
Outline: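 Agents were dosed in half-log steps down from roughly clinical Cmax, or from 10 microM where Cmax was unknown, alone and with AhR antagonists. Read-out: percent test/control growth of tumor spheroids containing HUVEC and MSC stromal cells.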

[1] = second compound 0.1 µM, first compound 0.0316 µM
[2] = second compound 0.1 µM, first compound 0.1 µM
[3] = second compound 0.316 µM, first compound 0.0316 µM
[4] = second compound 0.316 µM, first compound 0.1 µM
[5] = second compound 1 µM, first compound 0.0316 µM
[6] = second compound 1 µM, first compound 0.1 µM
[7] = second compound 3.16 µM, first compound 0.0316 µM
[8] = second compound 3.16 µM, first compound 0.1 µM
[9] = second compound 10 µM, first compound 0.0316 µM
[10] = second compound 10 µM, first compound 0.1 µM
[11] = second compound 0.1 µM, first compound 0.316 µM
[12] = second compound 0.1 µM, first compound 1 µM
[13] = second compound 0.1 µM, first compound 3.16 µM
[14] = second compound 0.1 µM, first compound 10 µM
[15] = second compound 0.316 µM, first compound 0.316 µM
[16] = second compound 0.316 µM, first compound 1 µM
[17] = second compound 0.316 µM, first compound 3.16 µM
[18] = second compound 0.316 µM, first compound 10 µM
[19] = second compound 1 µM, first compound 0.316 µM
[20] = second compound 1 µM, first compound 1 µM
[21] = second compound 1 µM, first compound 3.16 µM
[22] = second compound 1 µM, first compound 10 µM
[23] = second compound 3.16 µM, first compound 0.316 µM
[24] = second compound 3.16 µM, first compound 1 µM
[25] = second compound 3.16 µM, first compound 3.16 µM
[26] = second compound 3.16 µM, first compound 10 µM
[27] = second compound 10 µM, first compound 0.316 µM
[28] = second compound 10 µM, first compound 1 µM
[29] = second compound 10 µM, first compound 3.16 µM
[30] = second compound 10 µM, first compound 10 µM
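Wherever viability, T/C is given: percent of DMSO vehicle-treated spheroid viability set as 100%.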

| Compound | IC50 (second compound 0.1 µM) [nM] | IC50 (second compound 0.316 µM) [nM] | IC50 (second compound 1 µM) [nM] | IC50 (second compound 3.16 µM) [nM] | IC50 (second compound 10 µM) [nM] | viability, T/C [1] [%] | viability, T/C [2] [%] | viability, T/C [3] [%] | viability, T/C [4] [%] | viability, T/C [5] [%] | viability, T/C [6] [%] | viability, T/C [7] [%] | viability, T/C [8] [%] | viability, T/C [9] [%] | viability, T/C [10] [%] | viability, T/C [11] [%] | viability, T/C [12] [%] | viability, T/C [13] [%] | viability, T/C [14] [%] | viability, T/C [15] [%] | also measured |
| --- | --- | --- | --- | --- | --- | --- | --- | --- | --- | --- | --- | --- | --- | --- | --- | --- | --- | --- | --- | --- | --- |
| CC[C@@]1(O)C(=O)OCc2c1cc1n(c2=O)Cc2cc3c(CN(C)C)c(O)ccc3nc2-1 + Cc1cncc(-c2nc(NCCc3c[nH]c4ccccc34)c3ncn(C(C)C)c3n2)c1 | 42.4 | 42.2 | 30.7 | > 100 | < 0.316 | 55.5 | 37.4 | 51.6 | 38.2 | 49.1 | 47 | 52 | 49.4 | 5.07 | 6.81 |  |  |  |  |  | viability, T/C (second compound 0.1 µM, first compound 0.000316 µM): 97.6%; viability, T/C (second compound 0.1 µM, first compound 0.001 µM): 92.5%; viability, T/C (second compound 0.1 µM, first compound 0.00316 µM): 81.2%; viability, T/C (second compound 0.1 µM, first compound 0.01 µM): 67.5%; viability, T/C (second compound 0.316 µM, first compound 0.000316 µM): 118%; viability, T/C (second compound 0.316 µM, first compound 0.001 µM): 100%; viability, T/C (second compound 0.316 µM, first compound 0.00316 µM): 87.9%; viability, T/C (second compound 0.316 µM, first compound 0.01 µM): 73.9%; viability, T/C (second compound 1 µM, first compound 0.000316 µM): 91.3%; viability, T/C (second compound 1 µM, first compound 0.001 µM): 111%; viability, T/C (second compound 1 µM, first compound 0.00316 µM): 95.5%; viability, T/C (second compound 1 µM, first compound 0.01 µM): 72.4%; viability, T/C (second compound 3.16 µM, first compound 0.000316 µM): 84.3%; viability, T/C (second compound 3.16 µM, first compound 0.001 µM): 93.8%; viability, T/C (second compound 3.16 µM, first compound 0.00316 µM): 86.4%; viability, T/C (second compound 3.16 µM, first compound 0.01 µM): 59.3%; viability, T/C (second compound 10 µM, first compound 0.000316 µM): 12.7%; viability, T/C (second compound 10 µM, first compound 0.001 µM): 10.1%; viability, T/C (second compound 10 µM, first compound 0.00316 µM): 14.5%; viability, T/C (second compound 10 µM, first compound 0.01 µM): 7.56% |
| COc1cc(C2c3cc4c(cc3C(OC3OC5COC(C)OC5C(O)C3O)C3COC(=O)C23)OCO4)cc(OC)c1O (stereo not given) + Cc1cncc(-c2nc(NCCc3c[nH]c4ccccc34)c3ncn(C(C)C)c3n2)c1 | 563 | 722 | 1650 | 806 | < 31.6 | 88.4 | 109 | 101 | 107 | 101 | 90.2 | 105 | 81.8 | 13.1 | 15.2 | 62.5 | 41.3 | 40 | 31.1 | 68.1 | viability, T/C [16]: 47.2%; viability, T/C [17]: 35.4%; viability, T/C [18]: 33.8%; viability, T/C [19]: 81.3%; viability, T/C [20]: 54.8%; viability, T/C [21]: 42.1%; viability, T/C [22]: 35.2%; viability, T/C [23]: 86.4%; viability, T/C [24]: 41.2%; viability, T/C [25]: 37.1%; viability, T/C [26]: 30.2%; viability, T/C [27]: 13.7%; viability, T/C [28]: 5.82%; viability, T/C [29]: 6.89%; viability, T/C [30]: 5.29% |
| Nc1ccn(C2OC(CO)C(O)C2(F)F)c(=O)n1 (stereo not given) + Cc1cncc(-c2nc(NCCc3c[nH]c4ccccc34)c3ncn(C(C)C)c3n2)c1 | 507 | 636 | 928 | 3070 | < 31.6 | 73.7 | 74.8 | 104 | 79.1 | 98.1 | 111 | 117 | 114 | 13.9 | 11.2 | 51.2 | 42.9 | 32.4 | 24.5 | 50.8 | viability, T/C [16]: 51.1%; viability, T/C [17]: 35.1%; viability, T/C [18]: 19.6%; viability, T/C [19]: 74.2%; viability, T/C [20]: 50.4%; viability, T/C [21]: 41.6%; viability, T/C [22]: 29.2%; viability, T/C [23]: 83.9%; viability, T/C [24]: 70.1%; viability, T/C [25]: 51.7%; viability, T/C [26]: 31.2%; viability, T/C [27]: 13.6%; viability, T/C [28]: 8.91%; viability, T/C [29]: 10.4%; viability, T/C [30]: 10.4% |
